Measurements as given in patent publication US20140134197A1, “Mimotopic Peptides for the Diagnosis and Treatment of Multiple sclerosis” (priority 2011, published 2014).
Structures can show the parent of a compound that is named as a salt. Ends that are not written are not given here.

Assay: not given
Settings: Tables 3a-3e; from cited literature; CD4 T-helper cells; cited from earlier work

Row | Compound | Immunosuppressive Effects
1 | Fc1ccc([C@@H]2CCNC[C@H]2COc2ccc3c(c2)OCO3)cc1 [Paroxetine] | Decreases CD4 T-Helper Cells.

Same assay, conditions: Tables 3a-3e; from cited literature; cited from earlier work

Row | Compound | Immunosuppressive Effects
2 | O=C1NC(=O)C(c2ccccc2)(c2ccccc2)N1 [Dilantin, Phenytoin sodium] | Humoral Immune Suppressant
3 | Nc1ccc(O)c(C(=O)O)c1 [Mesalazine] | Potent and Specific Inhibitor
4 | CN1C(=O)CN=C(c2ccccc2)c2cc(Cl)ccc21 [Diazepam] | Markedly Suppresses Antigen-
5 | N[C@@H](Cc1cc(I)c(Oc2cc(I)c(O)c(I)c2)c(I)c1)C(=O)O [Levoxyl, Levothyroxine] | Inhibits Cytokine
6 | NS(=O)(=O)Cc1noc2ccccc12 [Zonisamide] | Suppression of IFN-gamma
7 | CC(C)c1c(C(=O)Nc2ccccc2)c(-c2ccccc2)c(-c2ccc(F)cc2)n1CC[C@@H](O)C[C@@H](O)CC(=O)O [Atorvastatin] | Increases in IL-10 Production.
8 | CNCCC(Oc1ccc(C(F)(F)F)cc1)c1ccccc1 (stereo not drawn) [Fluoxethine] | Decreases T Lymphocyte
9 | Cc1nnc2n1-c1ccc(Cl)cc1C(c1ccccc1)=NC2 [Alprazolam] | Inhibits proliferative responses
10 | COc1ccc(C(CN(C)C)C2(O)CCCCC2)cc1 (stereo not drawn) [Venlafaxine] | Suppresses pro-Inflammatory
11 | CC(C)c1nc(N(C)S(C)(=O)=O)nc(-c2ccc(F)cc2)c1/C=C/[C@@H](O)C[C@@H](O)CC(=O)O [Rosuvastatin] | Post-Transcriptional Level

Same assay, conditions: Tables 3a-3e; from cited literature; hydrochloride; antigen-specific TH1 responses; cited from earlier work

Row | Compound | Immunosuppressive Effects
12 | CN[C@H]1CC[C@@H](c2ccc(Cl)c(Cl)c2)c2ccccc21 [Sertraline hydrochloride] | Suppression of Antigen-

Same assay, conditions: Tables 3a-3e; from cited literature; splenocyte viability; cited from earlier work

Row | Compound | Immunosuppressive Effects
13 | Fc1ccc([C@@H]2CCNC[C@H]2COc2ccc3c(c2)OCO3)cc1 [Paroxetine] | Inhibit Splenocyte Viability.

Assay: Solubility / hydrophilicity of mimotopic peptides, free or with amino-ADOOA-ADOOA linker
Format: physicochemical
Settings: not given
Excerpt: Dimeric IgE complexing hinges upon disruption of the overhanging oligodendrocyte membrane surface and facilitated intracellular autoantibody inflow. […] Table 4a lists structurally unique, mimotopic, peptides serving as diagnostic and therapeutic antigens. […] Peptides used for initial diagnosis can be of maximum, unique length (column 3) or can be fractionated into pentameric, single epitope equivalents (column 5). […] The amide group is used for covalent Coupling to microplate wells. The 3,6-dioxaoctanoic acid2 construct, being very hydrophilic, solubilizes most al peptides, especially those that are relatively hydrophobic. The listed myelin, dimer-cornerstone peptide homologues (bold-highlighted) for MS therapy are useful because of their in-vivo: (a) net hydrophilicity for adequate solubility; […] The linker provides both increased hydrophilicity for enhanced solubility and serves as a point of attachment onto microtiter test plate wells. The peptide […] NO: 3) is an example of a soluble short peptide that is comprised of a singularly unique MOG surface pentamer, […]

Row | Compound | solubility of short therapeutic peptide | hydrophilicity / solubilization when coupled with amino-ADOOA-ADOOA linker | aggregation tendency
14 | DHSYQE [DHSYQE] | soluble |  | 
15 | DNEVFGEA |  | sufficiently hydrophilic | 
16 | QDTAVT [QDTAVT] |  | sufficiently hydrophilic | 
17 | PKNAW [PKNAW] |  | sufficiently hydrophilic | 
18 | YKDSHHPA |  | solubilize readily | 
19 | LQTIQE [LQTIQE] |  | sufficiently hydrophilic | 
20 | DNTFKD [DNTFKD] |  | sufficiently hydrophilic | 
21 | NLHRTFE [Asn Leu His Arg Thr Phe Glu] |  | sufficiently hydrophilic | 
22 | KDSHHPA [Lys Asp Ser His His Pro Ala] |  | solubilize readily | 
23 | Lys Gly Thr Gln Phe (KGTQF; listed as Homo sapiens) [KTGQF] |  |  | dual molecule aggregate-forming tendencies
24 | HGRTQ [HGRTQ] |  | solubilize readily | 
